Measured values: patent US20130040882A1, “USE OF FIBROBLAST GROWTH FACTOR FRAGMENTS” (NOVARTIS AG, priority 2003, published 2013)
Read-outs that look alike come from different tables or passages of the source.

Test system: transcript levels in tissues (GH/IGF and glucagon/insulin axes, SSTR signalling)
Format: in vivo, cynomolgus monkeys
[1] = RNA expression fold change, brown fat
[2] = RNA expression fold change, pancreas
[3] = RNA expression fold change, pituitary

Substance: cyclo[4-(NH2—C2H4—NH—CO—O)Pro-Phg-DTrp-Lys-Tyr(4-Bzl)-Phe] [SOM230]
- Gene expression (AvgDiff): IGF-1 (BROWN FAT): 389
- Gene expression (AvgDiff): IGFBP 4 (BROWN FAT): 763
- Gene expression (AvgDiff): IRS 2 (BROWN FAT): 146
- Gene expression (AvgDiff): SSTR3 (BROWN FAT): 194
- Gene expression (AvgDiff): IGF-1 (PANCREAS): 89
- Gene expression (AvgDiff): SSTR2 (PANCREAS): 156
- Gene expression (AvgDiff): GR (PITUITARY): 109
- Gene expression (AvgDiff): IGF-2 (PITUITARY): 70
- Gene expression (AvgDiff): IGFBP, acid labile subunit (PITUITARY): 83
- Gene expression (AvgDiff): SSTR3 (PITUITARY): 57
- Actin related protein 2/3 complex, subunit 1A (41 kD) ↓ [1]: (41 kD) ↓ x2.5
- Adrenergic, β-3-, receptor ↑ [1]: receptor ↑ x2.5
- Apotosis-associated tyrosine kinase ↑ [1]: tyrosine kinase ↑ x3.5
- CD2 antigen (cytoplasmic tail)-binding protein 2 ↑ [1]: protein 2 ↑ x2.5
- CSF 1 (macrophage) ↓ [1]: ↓ x2
- CSF 3 receptor (granulocyte) ↑ [1]: (granulocyte) ↑ x3
- Ca++ channel, voltage dependent, α 1H subunit ↑ [1]: ↑ x3
- Cadherin 5, VE-cadherin (vascular epithelium) ↑ [1]: (vascular epithelium) ↑ x3
- Cadherin 13, H-cadherin (heart) ↓ [1]: (heart) ↓ x2
- Cadherin F1B1 ↓ [1]: Cadherin F1B1 ↓ x4
- Calcium/calmodulin-dependent protein kinase I ↓ [1]: kinase I ↓ x3.5
- Capping protein (actin filament), gelsolin-like ↓ [1]: ↓ x2.5
- Coagulation factor XIIIAI subunit precursor ↓ [1]: ↓ x5
- Cyclin T2 ↑ [1]: Cyclin T2 ↑ x2.5
- Dopamine receptor D3 ↑ [1]: x2.5
- Dual specificity PP MKP-5 ↑ [1]: MKP-5 ↑ x2.5
- EGF receptor pathway substrate 15 ↓ [1]: substrate 15 ↓ x2
- Endothelial cell GF 1 (platelet derived) ↓ [1]: (platelet derived) ↓ x2
- Endothelial differentiation, sphingolipid G-protein-coupled receptor, 5 ↑ [1]: coupled receptor, 5 ↑ x2.5
- FSHR ↑ [1]: FSHR ↑ x2.5
- Fms-related tyrosine kinase 1 (VEGF/vascular permeability factor receptor) ↓ [1]: receptor) ↓ x4.5
- Follistatin-like 3 glycoprotein ↑ [1]: glycoprotein ↑ x3
- G1 to S phase transition ↓ [1]: ↓ x1.5
- G protein-activated inwardly rectifying K+ channel ↑ [1]: channel ↑ x3.5
- G protein-coupled receptor 1 ↓ [1]: receptor 1 ↓ x2.5
- G α inhibiting activity polypeptide 3 interacting protein ↓ [1]: protein ↓ x5
- GLUR, metabotropic 1 ↑ [1]: ↑ x2
- Guanine nucleotide binding protein (G protein), β polypeptide 3 ↑ [1]: ↑ x2.5
- IFN induced transmembrane protein 1 ↑ [1]: ↑ x2.5
- IFN γ-inducible protein 30 (IP30) ↓ [1]: 30 (IP30) ↓ x3.5
- IGF-1 ↓ [1]: IGF-1 ↓ x1.5
- IGF-binding protein 4 ↓ [1]: ↓ x2
- IL 3 (CSF, multiple) ↑ [1]: ↑ x2
- IL 5R, α ↑ [1]: IL 5R, α↑ x2.5
- IL 7R precursor ↑ [1]: IL 7R precursor ↑ x2
- IRS (insulin receptor substrate) 2 ↑ [1]: substrate) 2 ↑ x2.5
- Neuroblastoma apoptosis-related RNA bindingprotein ↓ [1]: bindingprotein ↓ x3
- Neuroblastoma ↓ [1]: Neuroblastoma ↓ x2.5
- Oxytocin, prepro-(neurophysin I) ↑ [1]: (neurophysin I) ↑ x2.5
- PCNA ↓ [1]: PCNA ↓ x2.5
- PI glycan, class F ↓ [1]: PI glycan, class F ↓ x2
- PI glycan, class L ↑ [1]: PI glycan, class L ↑ x3.5
- PI-3-kinase. regulatory subunit, polypeptide 2 (p85 β) ↓ [1]: (p85 β) ↓ x3.5
- PLC β4 ↑ [1]: PLC β4 ↑ x2
- PP 2, regulatory subunit B (B56), γ isoform ↓ [1]: B (B56), γ isoform ↓ x1.5
- PP 5, catalytic subunit ↑ [1]: ↑ x2.5
- Pentaxin-related gene, rapidly induced by IL-1 ↓ [1]: ↓ x7.5
- T3 receptor ↑ [1]: T3 receptor ↑ x2
- TGF β3 ↑ [1]: TGF β3 ↑ x2.5
- TGF β-activated kinase-binding protein 1 ↑ [1]: binding protein 1 ↑ x2.5
- THR interactor 10 ↓ [1]: THR interactor 10 ↓ x3
- THR interactor 12 ↓ [1]: ↓ x1.5
- TNF type 1 receptor associated protein ↓ [1]: associated protein ↓ x2
- VGF nerve growth factor inducible ↑ [1]: factor inducible ↑ x2
- BCL2/adenovirus E1B 19 kD-intracting protein 1, isoform BNIP1-a ↓ [2]: BNIP1-a ↓ x1.5
- CRHR 1 ↓ [2]: CRHR 1 ↓ x2
- Ca++ channel, voltage dependent, α 1F subunit ↓ [2]: ↓ x4.5
- Cdki 1C ↑ [2]: Cdki 1C ↑ x2
- Chymotrypsin-like ↑ [2]: ↑ x3.5
- Cyclin D1 ↑ [2]: Cyclin D1 ↑ x2
- Cyclin T2 ↓ [2]: Cyclin T2 ↓ x2
- G-CSF protein ↓ [2]: G-CSF protein ↓ x2
- GLUR precursor, flip isoform ↑ [2]: flip isoform ↑ x3
- Gastrin-releasing peptide receptor ↓ [2]: peptide receptor ↓ x5
- IFN regulatory factor 3 ↑ [2]: factor 3 ↑ x5
- IGF-1 ↑ [2]: IGF-1 ↑ x4.5
- IL 1 receptor antagonist ↓ [2]: antagonist↓ x2
- IP-1-phosphatase ↑ [2]: ↑ x2.5
- Integrin α2b precursor ↑ [2]: precursor ↑ x1.5
- K+ voltage-gated channel, KQT-like subfamily, member3 ↓ [2]: ↓ x2.5
- Na+ channel, voltage-gated, type I, β polypeptide ↑ [2]: β polypeptide ↑ x2
- Neuroblastoma apoptosis-related RNA bindingprotein ↓ [2]: ↓ x3
- PDGFR α ↑ [2]: PDGFR α ↑ x2.5
- PDGFR, α polypeptide ↑ [2]: α polypeptide ↑ x1.5
- PI-4-kinase, catalytic, α polypeptide ↑ [2]: α polypeptide ↑ x1.5
- PL A2, group IVC (cytosolic, calcium-independent) ↑ [2]: independent) ↑ x1.5
- Phosphotyrosine independent ligand p62B for the Lck SH2 domain B-cell isoform ↓ [2]: isoform ↓ x2
- Prostacyclin synthase ↑ [2]: ↑ x2
- SSTR2 ↓ [2]: SSTR2 ↓ x1.5
- Smad 3 ↓ [2]: Smad 3 ↓ x1.5
- THR binding protein ↓ [2]: ↓ x2
- THR interactor 10 ↑ [2]: ↑ x2.5
- Thrombospondin 2 ↑ [2]: ↑ x3.5
- 1-PI-4-phosphate 5-kinase isoform C ↓ [3]: kinase isoform C ↓ x1.5
- ANP (atrial natriuretic peptide precursor B) ↑ [3]: peptide precursor B) ↑ x2
- ATP(GTP)-binding protein ↑ [3]: protein ↑ x1.5
- ATPase, Ca++ transporting cardiac muscle, slow twitch 2 ↑ [3]: ↑ x1.5
- ATPase, H+/K+ exchanging, α polypeptide ↓ [3]: ↓ x5
- ATPase, Na+/K+ transporting, α2(+) polypeptide ↑ [3]: polypeptide ↑ x2.5
- ATPase, Na+/K+ transporting, β3 polypeptide ↑ [3]: polypeptide ↑ x2.5
- Adrenomedullin ↑ [3]: Adrenomedullin ↑ x2.5
- Arg PTK-binding protein ↓ [3]: protein ↓ x2.5
- BCL2-antagonist of cell death ↑ [3]: death ↑ x2
- BCL2-associated athanogene ↑ [3]: athanogene ↑ x2
- BCL2/adenovirus E1B 19 kD-interacting protein 3 ↑ [3]: ↑ x1.5
- Bax γ ↑ [3]: Bax γ ↑ x1.5
- Brain cannabinoid receptor 1 ↑ [3]: receptor 1 ↑ x2
- Butyrate response factor 2 (EGF-response factor 2) ↑ [3]: ↑ x3
- CC chemokines STCP-1 ↑ [3]: ↑ x1.5
- CD36 antigen ↓ [3]: CD36 antigen ↓ x2
- Calcium/calmodulin-dependent protein kinase I ↑ [3]: kinase I ↑ x2.5
- Catenin (cadherin-associated protein), α1 (102 kD) ↓ [3]: α1 (102 kD) ↓ x1.5
- Cdki2C (p18, inhibits CDK4) ↑ [3]: CDK4) ↑ x2
- Cdki2D (p19, inhibits CDK4) ↑ [3]: CDK4) ↑ x1.5
- Cell division cycle 25B ↑ [3]: ↑ x5
- Cholecystokinin receptor ↓ [3]: receptor ↓ x4.5
- Cholinergic receptor, muscarinic 3 ↓ [3]: muscarinic 3 ↓ x3
- Cholinergic receptor, nicotinic, β polypeptide 4 ↓ [3]: β polypeptide 4 ↓ x2
